Assay results published in the supplement of paper PMC6045584.
± gives the standard deviation of the averaged measurements.

Key:
[1] = compound: CC/C(=C(\c1ccc(O)cc1)c1ccc(OCCN(C)C)cc1)c1ccccc1 [AFIMOXIFENE]; test: surviving fraction relative to DMSO-only wells; higher = less growth inhibition; conditions: exposure time: 5 days
Method in brief: (§1)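 In 384-well plates, 250–500 log-phase tumour cells per well were given 24 hours before five days of continuous exposure to inhibitors at 0.5, 1, 5, 10, 50, 100, 500 and 1000 nM. Surviving fraction is luminescence from CellTiter-Glo, normalised to the median of wells containing DMSO alone. Reading took place after 10 minutes at room temperature.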

[2] = compound: O=C(CCCCCCC(=O)Nc1ccccc1)NO [VORINOSTAT]; test: as above; conditions: exposure time: 5 days
Method in brief: as §1

Test System	surviving fraction ([1]; 0.5 nM)	surviving fraction ([1]; 1 nM)	surviving fraction ([1]; 5 nM)	surviving fraction ([1]; 10 nM)	surviving fraction ([1]; 50 nM)	surviving fraction ([1]; 100 nM)	surviving fraction ([1]; 500 nM)	surviving fraction ([1]; 1000 nM)	surviving fraction ([2]; 0.5 nM)	surviving fraction ([2]; 1 nM)	surviving fraction ([2]; 5 nM)	surviving fraction ([2]; 10 nM)	surviving fraction ([2]; 50 nM)	surviving fraction ([2]; 100 nM)	surviving fraction ([2]; 500 nM)	surviving fraction ([2]; 1000 nM)
SNU475 LIVER	1.06 ± 0.024	1.09 ± 0.055	1.03 ± 0.016	1.04 ± 0.057	1.01 ± 0.022	1.07 ± 0.034	1.01 ± 0.054	1.07 ± 0.062	0.9603 ± 0.0081	0.944 ± 0.021	0.966 ± 0.028	0.831 ± 0.037	0.968 ± 0.027	0.941 ± 0.026	0.817 ± 0.018	0.556 ± 0.024
MFM223 BREAST	1.28 ± 0.067	1.21 ± 0.043	1.19 ± 0.084	1.22 ± 0.13	1.2 ± 0.043	–	1.1 ± 0.062	0.932 ± 0.043	1.05 ± 0.16	1.09 ± 0.047	1.13 ± 0.034	1.04 ± 0.043	1.18 ± 0.028	1.08 ± 0.03	0.738 ± 0.086	0.361 ± 0.029
MDAMB453 BREAST	1.09 ± 0.098	1.07 ± 0.07	1.11 ± 0.066	1.17 ± 0.16	1.1 ± 0.068	1.07 ± 0.029	1.07 ± 0.039	1.02 ± 0.026	0.998 ± 0.032	1.01 ± 0.079	1.03 ± 0.062	1.05 ± 0.065	1.06 ± 0.038	1.06 ± 0.022	0.785 ± 0.036	0.244 ± 0.0089
JIMT1 BREAST	1.01 ± 0.045	0.972 ± 0.026	1 ± 0.032	0.994 ± 0.048	1.08 ± 0.065	1.05 ± 0.066	1.04 ± 0.08	0.939 ± 0.024	0.924 ± 0.0097	0.995 ± 0.017	1.01 ± 0.037	0.986 ± 0.013	1.07 ± 0.027	1.006 ± 0.01	0.686 ± 0.01	0.448 ± 0.037
MHM BONE	1.02 ± 0.021	1.03 ± 0.05	1.09 ± 0.049	1.07 ± 0.033	1.06 ± 0.025	1.06 ± 0.027	1.01 ± 0.022	1.02 ± 0.028	0.928 ± 0.025	0.9847 ± 0.0087	1.01 ± 0.028	0.981 ± 0.019	1.03 ± 0.011	1 ± 0.019	0.985 ± 0.013	0.843 ± 0.025
HOSMNG BONE	0.922 ± 0.073	0.948 ± 0.032	0.996 ± 0.083	0.963 ± 0.038	1.1 ± 0.017	1.06 ± 0.032	1.07 ± 0.077	1.03 ± 0.078	0.994 ± 0.12	0.94 ± 0.091	0.996 ± 0.17	1.06 ± 0.064	0.999 ± 0.048	1.09 ± 0.063	1.06 ± 0.023	1.09 ± 0.02
BT20 BREAST	1.32 ± 0.11	1.27 ± 0.07	1.24 ± 0.065	1.3 ± 0.096	1.19 ± 0.086	1.28 ± 0.037	1.7 ± 0.076	1.9 ± 0.13	1.05 ± 0.17	1.09 ± 0.21	1.06 ± 0.17	1.05 ± 0.2	0.941 ± 0.21	0.943 ± 0.22	0.872 ± 0.19	0.491 ± 0.12
CAL72 BONE	1.1 ± 0.045	1.08 ± 0.069	1.11 ± 0.037	1.12 ± 0.034	1.14 ± 0.082	1.13 ± 0.07	0.967 ± 0.17	0.832 ± 0.21	1.02 ± 0.056	1.09 ± 0.022	1.08 ± 0.02	1.07 ± 0.026	1.08 ± 0.029	1.07 ± 0.018	1.05 ± 0.022	1.06 ± 0.042
VP229 BREAST	1.25 ± 0.37	1.2 ± 0.13	1.09 ± 0.08	1.16 ± 0.13	1.14 ± 0.07	1.16 ± 0.061	0.989 ± 0.21	1 ± 0.13	0.931 ± 0.099	1.04 ± 0.054	1.02 ± 0.11	0.924 ± 0.033	1.1 ± 0.086	1.04 ± 0.022	0.6 ± 0.11	0.352 ± 0.058
CADOES1 SOFT TISSUE	1.04 ± 0.054	0.998 ± 0.092	0.842 ± 0.12	0.986 ± 0.066	1.07 ± 0.064	0.978 ± 0.067	1.14 ± 0.042	0.967 ± 0.087	0.968 ± 0.063	0.916 ± 0.028	0.865 ± 0.096	0.824 ± 0.057	0.71 ± 0.23	0.397 ± 0.23	0.242 ± 0.057	0.0883 ± 0.016
ZR751 BREAST	1.13 ± 0.23	1.21 ± 0.18	1.09 ± 0.21	1.31 ± 0.19	1.09 ± 0.22	1.07 ± 0.17	1.03 ± 0.19	0.993 ± 0.084	1.22 ± 0.18	1.23 ± 0.18	1.16 ± 0.12	1.08 ± 0.2	1.37 ± 0.13	1.4 ± 0.19	1.23 ± 0.16	1.04 ± 0.17
HCC1954 BREAST	1.01 ± 0.15	1 ± 0.0018	1.31 ± 0.18	1.33 ± 0.1	0.9337 ± 0.0067	1.02 ± 0.056	0.973 ± 0.1	0.883 ± 0.12	0.802 ± 0.19	0.823 ± 0.26	1.07 ± 0.36	1.18 ± 0.13	1.345 ± 0.0064	1.37 ± 0.21	0.839 ± 0.022	0.42875 ± 0.00035
CAL120 BREAST	1 ± 0.031	0.972 ± 0.017	1.02 ± 0.074	1 ± 0.044	1.04 ± 0.041	0.994 ± 0.045	0.999 ± 0.031	0.948 ± 0.027	0.944 ± 0.017	0.896 ± 0.025	0.922 ± 0.013	0.883 ± 0.036	0.896 ± 0.025	0.78 ± 0.009	0.4962 ± 0.0023	0.248 ± 0.054
SG28 HEADNECK	1.208 ± 0.0021	1.04 ± 0.057	1.1 ± 0.15	0.965 ± 0.1	1.14 ± 0.1	0.985 ± 0.04	1.12 ± 0.04	1.05 ± 0.088	1.11 ± 0.14	1.16 ± 0.17	1.066 ± 0.0025	1.09 ± 0.018	1.03 ± 0.073	1.09 ± 0.032	0.998 ± 0.081	0.809 ± 0.11
SG31 HEADNECK	1.4 ± 0.15	1.21 ± 0.07	1.18 ± 0.16	1.06 ± 0.095	1.07 ± 0.15	1.09 ± 0.051	1.08 ± 0.099	–	1.07 ± 0.21	1.05 ± 0.27	1.02 ± 0.078	1.01 ± 0.18	1.08 ± 0.12	1.04 ± 0.042	0.948 ± 0.14	0.63 ± 0.027
OSHN BONE	1.09 ± 0.044	1.08 ± 0.023	1.1 ± 0.035	1.07 ± 0.034	1.12 ± 0.016	1.146 ± 0.0071	1.15 ± 0.016	1.1 ± 0.031	1.05 ± 0.026	1.04 ± 0.019	1.05 ± 0.022	1.028 ± 0.0032	1.08 ± 0.042	1.08 ± 0.032	1.1 ± 0.022	0.903 ± 0.022
SCC36 HEADNECK	1.07 ± 0.16	0.969 ± 0.026	1.13 ± 0.046	1.1 ± 0.047	1.07 ± 0.047	1.1 ± 0.078	0.883 ± 0.06	0.732 ± 0.074	1.01 ± 0.084	0.977 ± 0.073	1.1 ± 0.024	1.06 ± 0.082	1.12 ± 0.1	1.14 ± 0.12	0.677 ± 0.038	0.589 ± 0.054
CAL51 BREAST	0.988 ± 0.042	0.966 ± 0.054	1.05 ± 0.1	0.984 ± 0.029	1.04 ± 0.046	1.05 ± 0.028	1.08 ± 0.036	0.969 ± 0.028	0.956 ± 0.013	0.951 ± 0.056	1.02 ± 0.011	0.906 ± 0.021	1.02 ± 0.024	0.97 ± 0.078	0.65 ± 0.022	0.403 ± 0.01
HOS BONE	1.02 ± 0.013	1.03 ± 0.016	1.06 ± 0.012	1.03 ± 0.013	1.12 ± 0.014	1.08 ± 0.031	1.05 ± 0.024	0.974 ± 0.0061	0.957 ± 0.017	1 ± 0.022	0.9643 ± 0.0076	0.989 ± 0.017	1.05 ± 0.019	1.07 ± 0.029	0.948 ± 0.034	0.967 ± 0.021
HCC78 LUNG	0.893 ± 0.16	0.908 ± 0.17	0.902 ± 0.39	1.05 ± 0.19	–	1.13 ± 0.077	1.29 ± 0.2	1.08 ± 0.094	1.01 ± 0.12	0.818 ± 0.22	0.852 ± 0.12	1 ± 0.091	0.947 ± 0.22	1.06 ± 0.019	0.326 ± 0.042	0.0463 ± 0.011
